Entries after “also recorded” stand apart in the source; their conditions may differ.
Columns and labels:
Type in all cases: cell-based, mice
Bcl-XL = Bcl-XL expression by Western blot in retrovirally infected T cells; conditions: cells expressing the construct, anti-CD3 (10 μg/ml) alone or with soluble anti-CD28 (1.0 μg/ml)
IL-2 = IL-2 content of culture supernatants by CTLL-2 bioassay; conditions: cells expressing the construct; OVA peptide antigen or antigen plus anti-CD28 (1.0 μg/ml); supernatant at 48 hours
Description: FIG. 3 contains three bar graphs. Splenocytes from CD28-deficient DO11.10 mice were infected with retrovirus encoding either control (GFPRV) or wild type CD28 (FLCD28) or mutant CD28 constructs and stimulated with OVA(323-339) peptide alone, with CTLA4Ig (10 μg/ml) or with anti-CD28 mAb (1.0 μg/ml). Culture supernatant was harvested at 48 hours and assessed for IL-2 by CTLL-2 bioassay. Shown is the tritiated thymidine incorporation of the CTLL-2 cells. The mean +/−the std deviation of quadruplicate wells is plotted. Data from one representative experiment is shown. A) CTLL-2 assay following stimulation with 0.1 μM OVA. B) CTLL-2 assay following stimulation with 0.03 μM OVA.
Proliferation assays: Wild type or CD28-deficient DO11.10 splenocytes were isolated and infected with retrovirus encoding for either vector alone, full-length CD28, or mutant CD28 proteins. 5×10^4 infected cells were cocultured with 1.5×10^5 T-depleted, irradiated splenocytes from Balb/c mice. Graded doses of OVA(323-339) peptide were added alone or in combination with murine CTLA4Ig (10 μg/ml, provided by Genetics Institute, Cambridge Mass.), anti-CD28 mAb (1.0 μg/ml) or control Ig. Proliferation was determined by tritiated thymidine incorporation for the final 8 hours of a 72 hour culture. All conditions were plated in quadruplicate and the mean +/− standard deviation of the quadruplicate wells was determined. Culture supernatants were harvested from replicate plates at 48 hours and were assayed for IL-2 content by CTLL-2 bioassay. All experiments were repeated a minimum of three times. Representative data from one experiment is presented.
CD28 regulates IL-2 by both transcriptional and post-transcriptional processes (Fraser, J. D., etal., 1991. CD28. Science 251:313. Lindsten, T., et al 1989. Science 244:339). […]

[1] = test system: CD28-deficient DO11.10 splenocytes (T cells); assay: Proliferation assay: tritiated thymidine incorporation of retrovirally infected splenocytes stimulated with OVA(323-339) peptide and APC; conditions: CD28-deficient T cells reconstituted with the construct; for CD28-dependent proliferation: OVA(323-339) peptide plus T-depleted irradiated Balb/c splenocytes, final 8 h of 72 h culture

In the case of “CD28P187,190A: CD28 mutant with alanine instead of proline residues at position 187 and 190 (SEQ ID NO: 7) (IWTNSRRLLQSDYMNMTPRRPGLTRKPYQAYAAARDFAAYRP; listed as Homo sapiens)”, the “induction of Bcl-XL protein” value (Bcl-XL) is reported as “Bcl-XL induction was induced”, the “induction of Bcl-XL protein” value (Bcl-XL; listed as CD28PI 87,190A) is reported as “increased Bcl-XL expression” and the IL-2 secretion (IL-2) is reported as “marked decrease in IL-2 secretion”. For the same substance, the CD28-dependent proliferation [1] was “abrogated CD28-dependent proliferation”.

For “CD28Y170F: mutant CD28 with phenylalanine substituted for the tyrosine at position 170 (SEQ ID NO: 6) (IWTNSRRLLQSDFMNMTPRRPGLTRKPYQPYAPARDFAAYRP; listed as Homo sapiens)”, the “induction of Bcl-XL protein” value (Bcl-XL) was “unable to induce Bcl-XL induction”, the IL-2 secretion (IL-2) was “comparable to wild type; also recorded: equivalent levels as cells reconstituted with wild type CD28” and the CD28-dependent proliferation [1] was “appeared normal”. For the same substance, the “CD28-dependent proliferation, % proliferation of controls” value ([1]; multiple experiments (FIG. 2B)) was 60-80%.

In the case of “CD28Y188F: CD28 mutant which lacked the tyrosine within the PYAP motif (SEQ ID NO: 8) (IWTNSRRLLQSDYMNMTPRRPGLTRKPYQPFAPARDFAAYRP; listed as Homo sapiens)”, the IL-2 secretion (IL-2) is reported as “comparable to wild type” and the CD28-dependent proliferation [1] is reported as “less effect”.

In the case of “CD28d16: CD28 mutant with deletion of the C-terminal 16 amino acids (SEQ ID NO: 5) (IWTNSRRLLQSDYMNMTPRRPGLTRK; listed as Homo sapiens)”, the “induction of Bcl-XL protein” value (Bcl-XL) is reported as “unable to induce Bcl-XL induction” and the CD28-dependent proliferation [1] is reported as “did not produce any significant CD28-dependent proliferation”.

With “FLCD28: full-length wild type murine CD28 expressed by retrovirus (SEQ ID NO: 3) (IWTNSRRLLQSDYMNMTPRRPGLTRKPYQPYAPARDFAAYRP; listed as Homo sapiens)” the “induction of Bcl-XL protein” value (Bcl-XL) was “CD28-dependent induction of Bcl-XL protein” and the CD28-dependent proliferation [1] was “strong proliferative response”.

Reference: US20030166502A1, “Differential regulation of T cell survival and proliferation” (Washington University, priority 2001, published 2003)
